Measurements taken from PubChem BioAssay AID264 (DTP/NCI, 2004).
“And” between values parts separate entries of the source, which are not always exact repeats. Equal values may be shown once. Records with an inconclusive call do not appear.

Test system: nude mice, LX-1 lung xenograft intrarenal, tumor weight T/C
Experiment: NCI In Vivo Anticancer Drug Screen. Data for tumor model Human Lung LX-1 Xenograft (intrarenal inoculation) in NU/NU Swiss (nude) mice
Settings: endpoint: mean tumor weight change, higher = larger tumour
Method in brief: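 Antitumor effect is expressed as a ratio: the mean tumor measurement of the drug-treated group relative to that of the vehicle-dosed control group.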

[1] = dose: 150.0 mg/kg/injection, schedule: Q04DX003 (sc), vehicle: suspension in saline
[2] = dose: 150.0 mg/kg/injection, schedule: Q04DX003 (sc), vehicle: Klucel (hydroxypropylcellulose) (HPC)
[3] = dose: 300.0 mg/kg/injection, schedule: Q04DX003 (sc), vehicle: Klucel (hydroxypropylcellulose) (HPC)
[4] = dose: 1200.0 mg/kg/injection, schedule: Q04DX003 (sc), vehicle: Klucel (hydroxypropylcellulose) (HPC)
[5] = dose: 4.0 mg/kg/injection, schedule: Q01DX010 (sc), vehicle: saline
[6] = dose: 600.0 mg/kg/injection, schedule: Q04DX003 (sc), vehicle: Klucel (hydroxypropylcellulose) (HPC)

## O=c1cc(CCl)[nH]nc1CCl
dose: 6.25 mg/kg/injection, schedule: Q01DX010 (sc), vehicle: saline with Tween-80
  T/C: 92 % of control
dose: 12.5 mg/kg/injection, schedule: Q01DX010 (sc), vehicle: saline with Tween-80
  T/C: 55 % of control
dose: 25.0 mg/kg/injection, schedule: Q01DX010 (sc), vehicle: saline with Tween-80
  T/C: 49 % of control
dose: 50.0 mg/kg/injection, schedule: Q01DX010 (sc), vehicle: saline with Tween-80
  T/C: 106 % of control

## O=C1c2cccc3cc([N+](=O)[O-])cc(c23)C(=O)N1CCN1CCCC1
dose: 9.0 mg/kg/injection, schedule: Q04DX003 (sc), vehicle: saline with Tween-80
  T/C: 104 % of control
dose: 18.0 mg/kg/injection, schedule: Q04DX003 (sc), vehicle: saline with Tween-80
  T/C: 75 % of control
dose: 36.0 mg/kg/injection, schedule: Q04DX003 (sc), vehicle: saline with Tween-80
  T/C: 74 % of control
dose: 72.0 mg/kg/injection, schedule: Q04DX003 (sc), vehicle: saline with Tween-80
  T/C: 76 % of control

## CC[n+]1c(-c2ccccc2)c2cc(N)ccc2c2ccc(N)cc21
dose: 15.0 mg/kg/injection, schedule: Q04DX003 (sc), vehicle: saline
  T/C: 80 % of control
dose: 30.0 mg/kg/injection, schedule: Q04DX003 (sc), vehicle: saline
  T/C: 81 % of control
dose: 60.0 mg/kg/injection, schedule: Q04DX003 (sc), vehicle: saline
  T/C: 33 % of control

## COC1=NCN=C2SC=C(N)N=C12
[1]
  T/C: 79 % of control

## COC1C(O)CC(OC2CC(Oc3cc4cc5c(c(O)c4c(O)c3C)C(=O)[C@@H](OC3CC(OC4CC(OC6CC(C)(O)C(OC(C)=O)C(C)O6)C(O)C(C)O4)C(O)C(C)O3)[C@H]([C@H](OC)C(=O)[C@@H](O)[C@@H](C)O)C5)OC(C)C2OC(C)=O)OC1C (stereo partly drawn)
dose: 0.3 mg/kg/injection, schedule: Q04DX003 (sc), vehicle: Klucel (hydroxypropylcellulose) (HPC)
  T/C: 87 % of control
dose: 0.6 mg/kg/injection, schedule: Q04DX003 (sc), vehicle: Klucel (hydroxypropylcellulose) (HPC)
  T/C: 68 % of control
dose: 1.2 mg/kg/injection, schedule: Q04DX003 (sc), vehicle: Klucel (hydroxypropylcellulose) (HPC)
  T/C: 36 % of control

## C=C(C)C(=O)OC1C/C(CO)=C\C(O)C/C(C)=C/C2OC(=O)C(=C)C21 (stereo not drawn)
dose: 20.0 mg/kg/injection, schedule: Q04DX003 (sc), vehicle: saline + alcohol
  T/C: 96 % of control
dose: 40.0 mg/kg/injection, schedule: Q04DX003 (sc), vehicle: saline + alcohol
  T/C: 119 % of control
dose: 80.0 mg/kg/injection, schedule: Q04DX003 (sc), vehicle: saline + alcohol
  T/C: 104 % of control
dose: 160.0 mg/kg/injection, schedule: Q04DX003 (sc), vehicle: saline + alcohol
  T/C: 107 % of control

## O=C1C(NCC(O)CO)=C(N2CC2)C(=O)C(NCC(O)CO)=C1N1CC1 (stereo not drawn)
dose: 4.0 mg/kg/injection, schedule: Q04DX003 (ip), vehicle: saline
  T/C: 102 % of control
dose: 8.0 mg/kg/injection, schedule: Q04DX003 (ip), vehicle: saline
  T/C: 84 % of control
dose: 16.0 mg/kg/injection, schedule: Q04DX003 (ip), vehicle: saline
  T/C: 61 % of control
dose: 32.0 mg/kg/injection, schedule: Q04DX003 (ip), vehicle: saline
  T/C: 50 % of control

## BrC[P+](CBr)(CBr)CBr
dose: 400.0 mg/kg/injection, schedule: Q04DX003 (sc), vehicle: saline with Tween-80
  T/C: 156 % of control

## Cc1oc2c(C)c3oc(=O)cc(C)c3cc2c1CCl
dose: 150.0 mg/kg/injection, schedule: Q04DX003 (sc), vehicle: saline with Tween-80
  T/C: 82 % of control
dose: 300.0 mg/kg/injection, schedule: Q04DX003 (sc), vehicle: saline with Tween-80
  T/C: 95 % of control
dose: 600.0 mg/kg/injection, schedule: Q04DX003 (sc), vehicle: saline with Tween-80
  T/C: 60 % of control
dose: 1200.0 mg/kg/injection, schedule: Q04DX003 (sc), vehicle: saline with Tween-80
  T/C: 76 % of control

## O=[N+]([O-])c1nccn1CC(O)CO (stereo not drawn)
dose: 600.0 mg/kg/injection, schedule: Q04DX003 (sc), vehicle: saline
  T/C: 91 % of control
dose: 1200.0 mg/kg/injection, schedule: Q04DX003 (sc), vehicle: saline
  T/C: 78 % of control
dose: 2400.0 mg/kg/injection, schedule: Q04DX003 (sc), vehicle: saline
  T/C: 108 % of control

## CC1OC1C(=O)C1(O)C(C)C(O)C23OC2(C(O)c2c(O)cccc2C3=O)C1O (stereo not drawn)
dose: 6.0 mg/kg/injection, schedule: Q04DX003 (sc), vehicle: Klucel (hydroxypropylcellulose) (HPC)
  T/C: 83 % of control
dose: 12.0 mg/kg/injection, schedule: Q04DX003 (sc), vehicle: Klucel (hydroxypropylcellulose) (HPC)
  T/C: 98 % of control
dose: 24.0 mg/kg/injection, schedule: Q04DX003 (sc), vehicle: Klucel (hydroxypropylcellulose) (HPC)
  T/C: 110 % of control
dose: 48.0 mg/kg/injection, schedule: Q04DX003 (sc), vehicle: Klucel (hydroxypropylcellulose) (HPC)
  T/C: 41 % of control

## CC(C)CCCCCCCCCCCCC(=O)NCC(=O)NC1C(O)C(O)C(Nc2ncnc3nc[nH]c23)OC1C(O)CO (stereo not drawn)
dose: 0.4 mg/kg/injection, schedule: Q01DX010 (sc), vehicle: saline
  T/C: 84 % of control
dose: 0.8 mg/kg/injection, schedule: Q01DX010 (sc), vehicle: saline
  T/C: 62 % of control
dose: 1.6 mg/kg/injection, schedule: Q01DX010 (sc), vehicle: saline
  T/C: 48 % of control

## Oc1c(Cl)cc(Cl)cc1C1N2CCCCC2C2c3cccn3-c3ccccc3N21 (stereo not drawn)
[2]
  T/C: 65 % of control
[3]
  T/C: 69 % of control
[4]
  T/C: 74 % of control

## [N-]=[N+]=C1N=CN=C1c1ncn[nH]1
dose: 12.5 mg/kg/injection, schedule: Q01DX010 (sc), vehicle: Klucel (hydroxypropylcellulose) (HPC)
  T/C: 153 % of control
dose: 50.0 mg/kg/injection, schedule: Q01DX010 (sc), vehicle: Klucel (hydroxypropylcellulose) (HPC)
  T/C: 55 % of control

## O=C1C(=O)c2ccccc2C(O)=C1CC=C(Cl)Cl
dose: 25.0 mg/kg/injection, schedule: Q01DX010 (sc), vehicle: water
  T/C: 255 % of control
dose: 50.0 mg/kg/injection, schedule: Q01DX010 (sc), vehicle: water
  T/C: 95 % of control
dose: 100.0 mg/kg/injection, schedule: Q01DX010 (sc), vehicle: water
  T/C: 117 % of control
dose: 200.0 mg/kg/injection, schedule: Q01DX010 (sc), vehicle: water
  T/C: 158 % of control

## CNC(=O)OCc1c(COC(=O)NC)c(-c2ccc(Cl)c(Cl)c2)n2c1Cc1ccccc1C2
dose: 150.0 mg/kg/injection, schedule: Q04DX003 (sc), vehicle: distilled water + Tween-80
  T/C: 97 % of control
dose: 300.0 mg/kg/injection, schedule: Q04DX003 (sc), vehicle: distilled water + Tween-80
  T/C: 71 % of control
dose: 600.0 mg/kg/injection, schedule: Q04DX003 (sc), vehicle: distilled water + Tween-80
  T/C: 58 % of control
dose: 1200.0 mg/kg/injection, schedule: Q04DX003 (sc), vehicle: distilled water + Tween-80
  T/C: 54 % of control

## Cc1cn(C2CC(F)C(CO)O2)c(=O)[nH]c1=O (stereo not drawn)
[1]
  T/C: 54 % of control
dose: 300.0 mg/kg/injection, schedule: Q04DX003 (sc), vehicle: suspension in saline
  T/C: 85 % of control
dose: 600.0 mg/kg/injection, schedule: Q04DX003 (sc), vehicle: suspension in saline
  T/C: 56 % of control
dose: 1200.0 mg/kg/injection, schedule: Q04DX003 (sc), vehicle: suspension in saline
  T/C: 37 % of control

## Cc1c(N)nc(C(CC(N)=O)NCC(N)C(N)=O)nc1C(=O)NC(C(=O)NC(C)C(O)C(C)C(=O)NC(C(=O)NCCc1nc(-c2nc(C(=O)NCCCNC(C)c3ccccc3)cs2)cs1)C(C)O)C(OC1OC(CO)C(O)C(O)C1OC1OC(CO)C(O)C(OC(N)=O)C1O)c1cnc[nH]1 (stereo not drawn)
dose: 2.0 mg/kg/injection, schedule: Q01DX010 (sc), vehicle: saline
  T/C: 53 % of control
[5]
  T/C: 32 % of control
dose: 16.0 mg/kg/injection, schedule: Q01DX010 (sc), vehicle: saline
  T/C: 22 % of control and 28 % of control
dose: 32.0 mg/kg/injection, schedule: Q01DX010 (sc), vehicle: saline
  T/C: 39 % of control

## CC(C)NC(=O)N(CCCCBr)N=O
dose: 75.0 mg/kg/injection, schedule: Q04DX003 (sc), vehicle: Klucel (hydroxypropylcellulose) (HPC)
  T/C: 95 % of control
[2]
  T/C: 52 % of control
[3]
  T/C: 44 % of control

## COc1cc2c(cc1O)N=C[C@@H]1CCC(O)N1C2=O (mixture of isomers)
[5]
  T/C: 213 % of control

## CCNC(=O)OCc1c(COC(=O)NCC)c(-c2ccc(Cl)c(Cl)c2)n2c1CCC2
dose: 100.0 mg/kg/injection, schedule: Q01DX010 (sc), vehicle: saline with Tween-80
  T/C: 26 % of control and 31 % of control
dose: 200.0 mg/kg/injection, schedule: Q01DX010 (sc), vehicle: saline with Tween-80
  T/C: 95 % of control

## C#C[C@]1(O)CC[C@H]2[C@@H]3CCc4cc(O)ccc4[C@H]3CC[C@@]21C
[3]
  T/C: 70 % of control
[6]
  T/C: 102 % of control
[4]
  T/C: 50 % of control
dose: 2400.0 mg/kg/injection, schedule: Q04DX003 (sc), vehicle: Klucel (hydroxypropylcellulose) (HPC)
  T/C: 55 % of control

## Cc1nn(CCO)c(C)c1N=[N+]([O-])c1c(C)nn(CCO)c1C
[2]
  T/C: 99 % of control
[3]
  T/C: 105 % of control
[6]
  T/C: 121 % of control
[4]
  T/C: 103 % of control
